The record followed here is patent US7772180B2, “Hepatitis C virus inhibitors” (Bristol-Myers Squibb Company, priority 2006, dated 2010).

Read-outs that look alike come from different tables or passages of the source.

In this test the test system is HCV replicon (strain 1b) in HUH-7 cells. The test is described as follows: HCV replicon FRET assay. The format is cell-based, Hepatitis C virus. Particulars: Hepatitis C virus. (In general: A replicon is a self-replicating genome or part of one, used to study replication in cells.)

By EC50 is commonly meant the midpoint of the concentration-response curve.

As for `C=C[C@@H]1C[C@]1(NC(=O)[C@@H]1C[C@@H](Oc2nc(N(C)C)cc3cc(OC)ccc23)CN1C(=O)C(Nc1cc(C)cc(C)n1)C(C)(C)C)C(=O)NS(=O)(=O)C1CC1` (single isomer, unassigned) [Compound 18], the concentration for a half-maximal effect (EC50) (Huh-7, read-out: EC50 in the replicon FRET assay, replicon FRET assay) was found to be 9 nM and the EC50 (Huh-7, read-out: HCV Pro Replicon (EC50), HCV replicon cell assay, activity range class) lay in the range of 3 to 100 nM.
